According to US9580463B2 (BRISTOL-MYERS SQUIBB COMPANY, priority 2013, dated 2017):
Like-named read-outs stand apart in the source and are kept apart here.

Key:
[1] = rcm bond, 15-membered ring, Hoveyda-Grubbs II, DCE, 80.0 °C
[2] = tested on: HCV genotype 1a (H77 strain) replicon in HUH-7 cells; assay: HCV replicon luciferase reporter assay, genotype 1a; assay type: cell-based; settings: Hepatitis C virus, 72 h, genotype 1a replicon, 3 days incubation
Summary of the method: (§1)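 Twenty-point, threefold compound titrations (0.5% DMSO) were incubated 3 days at 37 °C with 3.0×10^3 HUH-7 cells/well in 4% FCS. The cells stably carried luciferase replicons: genotype 1b Con1 (S1179I) or 1a H77 (NS3 P1496L, NS5A S2204I). Renilla signal was read after 2 h with 7.5 μM EnduRen, and EC50 was taken from a four-parameter logistic fit. Cytotoxicity (CC50) was measured by Cell Titer-Blue, 8 h.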

[3] = tested on: HCV genotype 1b (Con1) replicon in HUH-7 cells; assay: HCV replicon luciferase reporter assay, genotype 1b; assay type: cell-based; settings: Hepatitis C virus, 72 h, genotype 1b replicon, 3 days incubation
Summary of the method: as §1

SMILES | EC50 ([2]; read-out: LE_1a (EC50, range)) | EC50 ([3]; read-out: LE_1b (EC50, range)) | further results
COC[C@@H]1CC(C)CC/C=C\[C@@H]2C[C@@]2(C(=O)NS(=O)(=O)C2CC2)NC(=O)[C@@H]2C[C@@H](O)CN2C(=O)[C@H]1NC(=O)OC(C)(C)C (stereo partly shown) | – | – | ring closure, isolated yield ([1]; from C=CCCC(C)C[C@@H](COC)[C@H](NC(=O)OC(C)(C)C)C(=O)N1C[C@H](O)C[C@H]1C(=O)N[C@]1(C(=O)NS(=O)(=O)C2CC2)C[C@H]1C=C, 9.2 mM, 4.0 h): 71%
COC[C@@H]1CCCC/C=C\[C@@H]2C[C@@]2(C(=O)NS(=O)(=O)C2CC2)NC(=O)[C@@H]2C[C@@H](O)CN2C(=O)[C@H]1NC(=O)OC(C)(C)C | – | – | ring closure, isolated yield ([1]; from C=CCCCC[C@@H](COC)[C@H](NC(=O)OC(C)(C)C)C(=O)N1C[C@H](O)C[C@H]1C(=O)N[C@]1(C(=O)NS(=O)(=O)C2CC2)C[C@H]1C=C, 10.8 mM, 2.0 h): 52%
COC[C@@H]1CC(C)CC/C=C\[C@@H]2C[C@@]2(C(=O)NS(=O)(=O)C2(CF)CC2)NC(=O)[C@@H]2C[C@@H](O)CN2C(=O)[C@H]1NC(=O)OC(C)(C)C (stereo partly shown) | – | – | ring closure, isolated yield ([1]; from tert-butyl (2S,3R)-1-(((2S,4R)-2-(((1R,2S)-1-(((1-(fluoromethyl)cyclopropyl)sulfonyl)carbamoyl)-2-vinylcyclopropyl)carbamoyl)-4-hydroxypyrrolidin-1-yl)-3-(methoxymethyl)-5-methyl-1-oxonon-8-en-2-yl)carbamate, 5.0 mM): 45%
COC[C@@H]1CCCC/C=C\[C@@H]2C[C@@]2(C(=O)NS(=O)(=O)C2(C)CC2)NC(=O)[C@@H]2C[C@@H](O)CN2C(=O)[C@H]1NC(=O)OC(C)(C)C | – | – | ring closure, isolated yield ([1]; from C=CCCCC[C@@H](COC)[C@H](NC(=O)OC(C)(C)C)C(=O)N1C[C@H](O)C[C@H]1C(=O)N[C@]1(C(=O)NS(=O)(=O)C2(C)CC2)C[C@H]1C=C, 24.4 mM, 2.0 h): 55%
COC[C@@H]1C[C@@H](C)CC/C=C\[C@@H]2C[C@@]2(C(=O)NS(=O)(=O)C2(C)CC2)NC(=O)[C@@H]2C[C@@H](Oc3nc4cc(OC)ccc4nc3C(C)C)CN2C(=O)[C@H]1NC(=O)OC(C)(C)C [Compound 1029, tert-butyl ((2R,6S,7R,9S,13aS,14aR,16aS,Z)-2-((3-isopropyl-7-methoxyquinoxalin-2-yl)oxy)-7-(methoxymethyl)-9-methyl-14a-(((1-methylcyclopropyl)sulfonyl)carbamoyl)-5,16-dioxo-1,2,3,5,6,7,8,9,10,11,13a,14,14a,15,16,16a-hexadecahydrocyclopropa[e]pyrrolo[1,2-a][1,4]diazacyclopentadecin-6-yl)carbamate] | 1.01 to 5 nM | 0.51 to 1 nM | EC50 ([2]; read-out: LE_1a (EC50)): 1.78 nM; EC50 ([3]; read-out: LE_1b (EC50)): 0.63 nM
COC[C@@H]1CCCC/C=C\[C@@H]2C[C@@]2(C(=O)NS(=O)(=O)C2(C)CC2)NC(=O)[C@@H]2C[C@@H](Oc3ncc(OC)c4ccccc34)CN2C(=O)[C@H]1NC(=O)OC(C)(C)C(F)(F)F [Compound 1002, 1,1,1-trifluoro-2-methylpropan-2-yl ((2R,6S,7R,13aS,14aR,16aS,Z)-2-((4-methoxyisoquinolin-1-yl)oxy)-7-(methoxymethyl)-14a-(((1-methylcyclopropyl)sulfonyl)carbamoyl)-5,16-dioxo-1,2,3,5,6,7,8,9,10,11,13a,14,14a,15,16,16a-hexadecahydrocyclopropa[e]pyrrolo[1,2-a][1,4]diazacyclopentadecin-6-yl)carbamate] | 0.51 to 1 nM | 0.1 to 0.5 nM | –
COC[C@@H]1C[C@H](C)CC/C=C\[C@@H]2C[C@@]2(C(=O)NS(=O)(=O)C2(C)CC2)NC(=O)[C@@H]2C[C@@H](Oc3ncc(OC)c4ccccc34)CN2C(=O)[C@H]1NC(=O)OC(C)(C)C [Compound 1010, tert-butyl ((2R,6S,7R,9R,13aS,14aR,16aS,Z)-2-((4-methoxyisoquinolin-1-yl)oxy)-7-(methoxymethyl)-9-methyl-14a-(((1-methylcyclopropyl)sulfonyl)carbamoyl)-5,16-dioxo-1,2,3,5,6,7,8,9,10,11,13a,14,14a,15,16,16a-hexadecahydrocyclopropa[e]pyrrolo[1,2-a][1,4]diazacyclopentadecin-6-yl)carbamate] | 0.51 to 1 nM | 0.1 to 0.5 nM | –
COC[C@@H]1CCCC/C=C\[C@@H]2C[C@@]2(C(=O)NS(=O)(=O)C2(C)CC2)NC(=O)[C@@H]2C[C@@H](Oc3nccc4cc(OC)ccc34)CN2C(=O)[C@H]1NC(=O)OC(C)(C)C(F)(F)F [Compound 1001, 1,1,1-trifluoro-2-methylpropan-2-yl ((2R,6S,7R,13aS,14aR,16aS,Z)-2-((6-methoxyisoquinolin-1-yl)oxy)-7-(methoxymethyl)-14a-(((1-methylcyclopropyl)sulfonyl)carbamoyl)-5,16-dioxo-1,2,3,5,6,7,8,9,10,11,13a,14,14a,15,16,16a-hexadecahydrocyclopropa[e]pyrrolo[1,2-a][1,4]diazacyclopentadecin-6-yl)carbamate] | 1.01 to 5 nM | 0.51 to 1 nM | –
COC[C@@H]1CCCC/C=C\[C@@H]2C[C@@]2(C(=O)NS(=O)(=O)C2CC2)NC(=O)[C@@H]2C[C@@H](Oc3nc4cc(OC)ccc4nc3C(F)(F)F)CN2C(=O)[C@H]1NC(=O)OC(C)(C)C(F)(F)F [Compound 1021, 1,1,1-trifluoro-2-methylpropan-2-yl ((2R,6S,7R,13aS,14aR,16aS,Z)-14a-((cyclopropylsulfonyl)carbamoyl)-2-((7-methoxy-3-(trifluoromethyl)quinoxalin-2-yl)oxy)-7-(methoxymethyl)-5,16-dioxo-1,2,3,5,6,7,8,9,10,11,13a,14,14a,15,16,16a-hexadecahydrocyclopropa[e]pyrrolo[1,2-a][1,4]diazacyclopentadecin-6-yl)carbamate] | 1.01 to 5 nM | 0.1 to 0.5 nM | –
COC[C@@H]1CCCC/C=C\[C@@H]2C[C@@]2(C(=O)NS(=O)(=O)C2CC2)NC(=O)[C@@H]2C[C@@H](Oc3nccc4cc(OC)c(F)cc34)CN2C(=O)[C@H]1NC(=O)OC(C)(C)C(F)(F)F [Compound 1023] | 1.01 to 5 nM | 0.1 to 0.5 nM | –
COC[C@@H]1C[C@H](C)CC/C=C\[C@@H]2C[C@@]2(C(=O)NS(=O)(=O)C2(CF)CC2)NC(=O)[C@@H]2C[C@@H](Oc3nc4cc(OC)ccc4nc3C(F)(F)F)CN2C(=O)[C@H]1NC(=O)OC(C)(C)C [Compound 1035, tert-butyl ((2R,6S,7R,9R,13aS,14aR,16aS,Z)-14a-(((1-(fluoromethyl)cyclopropyl)sulfonyl)carbamoyl)-2-((7-methoxy-3-(trifluoromethyl)quinoxalin-2-yl)oxy)-7-(methoxymethyl)-9-methyl-5,16-dioxo-1,2,3,5,6,7,8,9,10,11,13a,14,14a,15,16,16a-hexadecahydrocyclopropa[e]pyrrolo[1,2-a][1,4]diazacyclopentadecin-6-yl)carbamate] | 1.01 to 5 nM | 1.01 to 5 nM | –
COC[C@@H]1C[C@H](C)CC/C=C\[C@@H]2C[C@@]2(C(=O)NS(=O)(=O)C2CC2)NC(=O)[C@@H]2C[C@@H](Oc3nccc4cc(OC)ccc34)CN2C(=O)[C@H]1NC(=O)OC(C)(C)C(F)(F)F [Compound 1019, 1,1,1-trifluoro-2-methylpropan-2-yl ((2R,6S,7R,9R,13aS,14aR,16aS,Z)-14a-((cyclopropylsulfonyl)carbamoyl)-2-((6-methoxyisoquinolin-1-yl)oxy)-7-(methoxymethyl)-9-methyl-5,16-dioxo-1,2,3,5,6,7,8,9,10,11,13a,14,14a,15,16,16a-hexadecahydrocyclopropa[e]pyrrolo[1,2-a][1,4]diazacyclopentadecin-6-yl)carbamate] | 1.01 to 5 nM | 0.51 to 1 nM | –
COC[C@@H]1C[C@@H](C)CC/C=C\[C@@H]2C[C@@]2(C(=O)NS(=O)(=O)C2CC2)NC(=O)[C@@H]2C[C@@H](Oc3ncc(OC)c4ccccc34)CN2C(=O)[C@H]1NC(=O)OC(C)(C)C [Compound 1004, tert-butyl ((2R,6S,7R,9S,13aS,14aR,16aS,Z)-14a-((cyclopropylsulfonyl)carbamoyl)-2-((4-methoxyisoquinolin-1-yl)oxy)-7-(methoxymethyl)-9-methyl-5,16-dioxo-1,2,3,5,6,7,8,9,10,11,13a,14,14a,15,16,16a-hexadecahydrocyclopropa[e]pyrrolo[1,2-a][1,4]diazacyclopentadecin-6-yl)carbamate] | 1.01 to 5 nM | 1.01 to 5 nM | –
COC[C@@H]1C[C@H](C)CC/C=C\[C@@H]2C[C@@]2(C(=O)NS(=O)(=O)C2CC2)NC(=O)[C@@H]2C[C@@H](Oc3nccc4cc(OC)ccc34)CN2C(=O)[C@H]1NC(=O)OC(C)(C)C [Compound 1009, tert-butyl ((2R,6S,7R,9R,13aS,14aR,16aS,Z)-14a-((cyclopropylsulfonyl)carbamoyl)-2-((6-methoxyisoquinolin-1-yl)oxy)-7-(methoxymethyl)-9-methyl-5,16-dioxo-1,2,3,5,6,7,8,9,10,11,13a,14,14a,15,16,16a-hexadecahydrocyclopropa[e]pyrrolo[1,2-a][1,4]diazacyclopentadecin-6-yl)carbamate] | 1.01 to 5 nM | 1.01 to 5 nM | –
COC[C@@H]1C[C@@H](C)CC/C=C\[C@@H]2C[C@@]2(C(=O)NS(=O)(=O)C2(C)CC2)NC(=O)[C@@H]2C[C@@H](Oc3nccc4cc(OC)ccc34)CN2C(=O)[C@H]1NC(=O)OC(C)(C)C [Compound 1006, tert-butyl ((2R,6S,7R,9S,13aS,14aR,16aS,Z)-2-((6-methoxyisoquinolin-1-yl)oxy)-7-(methoxymethyl)-9-methyl-14a-(((1-methylcyclopropyl)sulfonyl)carbamoyl)-5,16-dioxo-1,2,3,5,6,7,8,9,10,11,13a,14,14a,15,16,16a-hexadecahydrocyclopropa[e]pyrrolo[1,2-a][1,4]diazacyclopentadecin-6-yl)carbamate] | 5.01 to 35 nM | 1.01 to 5 nM | –
